Patent publication US7645882B2, “Inhibitor of protein modification products formation” (priority 2003, dated 2010)

Columns and labels:
[1] = test system: GRP78; experiment: ER stress inducing molecule expression in RIN-5F cells, western blot, GRP78; assay type: cell-based, rat; conditions: TM-2002 200 μM, 50 μM and tunicamycin co-added
Procedure: Rat pancreatic β cell line (RIN-5F) was seeded in 6 well culture plate to 1.0×10^5 cells/well, and after 24 hours, TM-2002 in DMSO (200 mM, 50 mM) were added to be final concentration 200 μM, 50 μM. After another 1 hour, 0.2 μl of tunicamycin (Sigma) in methanol(1 mg/ml) was added. After culturing 8 hours, the cells were washed 2 ml of PBS(+) twice, and the cells were dissolved in 100 μl of lysate (50 mM Tris-HCl (pH 7.5), 150 mM NaCl, 100 mM NaF, 100 mM sodium phosphate (pH 7.4), 2 mM Na3VO4, 0.1% protease inhibitor cocktail (Sigma), 1% Triton X-100). To remove the insoluble fraction of this lysate, centrifuged at 12,000×g for 10 minutes and obtained the supernatant to give cell extract. The extract was quantified its protein concentration using DC protein assay kit (Bio Rad), and each samples (1 μg) was electrophoresed by SDS-PAGE and transferred to PVDF membrane. The membrane was blocked with 5% skimmed milk/0.1% Tween20-TBS for 1 hour at room temperature, and reacted with anti-ORP150 antibody in 5% skimmed milk/0.1% Tween20-TBS (2000 folds: specific antibody), anti-GRP78 antibody (Santa Cruz) in 5% skimmed milk/0.1% Tween20-TBS (100 folds) and anti-actin antibody (Sigma) in 5% skimmed milk/0.1% Tween20-TBS (200 folds) for 2 hours. […] The detected signal was analyzed by Lane analyzer (ATTO) and calculated the signal strength. […]

[2] = test system: middle cerebral artery ischemia-reperfusion model; experiment: Cerebroprotective action in middle cerebral artery ischemia-reperfusion model; assay type: in vivo, rat
Procedure: CD(SD)IGS male rats (Japan Charles river Kabushiki kaisha, Hino farm, room No. 22, specific product) (8 rats per one group) having body weight 270 to 350 g were anesthetized by 2% isoflurane (mixed bas comprising of 70% N2O (laughter gas) and 30% O2) to immobilize, and then the rats were put on warming plate to keep the rectal and brain temperature 37 to 38° C. After that, to observe the stability in the examination, cannula which was made by polyethylene (PE-50, Becton Dickinson) was inserted and left in caudal artery of said animal, and this made blood drawing and blood pressure determining to monitor the biochemical parameter such as blood sugar level, hematocrit, CO2 concentration, oxygen partial pressure, pH, blood pressure and etc. In addition, cerebral blood flow in cortex was determined by laser doppler fluorometry (Neuroscience.inc: OMEGA FLOW (FLO-C1)), putting the detection site directly on cranium on the point left 4 mm from bregma. Left neck of such animal was incised, and from internal and external carotid fork of common carotid artery to upstream of internal carotid, nylon surgical thread (length 16 mm, diameter 0.2 to 0.3 mm, with silicon coating on its tip 3 mm) was passed and left, middle cerebral artery was obstructed for 2 hours. After that, the thread was removed to release the middle cerebral artery, and blood was reperfused for 21 hours. To each animals, 3.0 mg/kg of edaravone (control) and 5.58 mg/kg of TM-2002 were respectively administered twice by cannula which is left in caudal artery 5 minutes and 5 hours after middle cerebral artery occlusion. After said operation, the brain was removed from said animal, and after preparing 7 brain slices with 2 mm thickness, to TTC stain (0.8 g of 2,3,5-triphenyltetrazolium chloride (Sigma) dissolved in 40 ml of saline) were soaked at 37° C. for 15 minutes to stain, the area of infarction and fixed by 10% neutral formalin liquid to prepare specimen. Such specimens were created the image by CCD camera respectively, and analysed according to method of Swanson et al. (J Cereb Blood Flow Metab 10:290-293; 1994). […] Furthermore, function recovering was estimated before and after the operation by rotor rod test that estimates how much they can walk on rotating rotor.

With Cc1ncc2c(c1O)C(c1c(C)nn(-c3ccccc3)c1O)OC2 (stereo not drawn) [compound 68, 1-(5-hydroxy-3-methyl-1-phenyl-1H-pyrazol-4-yl)-6-methyl-1,3-dihydro-furo[3,4-c]pyridin-7-ol] the “hyperexpression of GRP78” value [1] was “suppressed”, the cerebral infarction nest ([2]; 2 hours occlusion, 21 hours reperfusion, edaravone 3.0 mg/kg, TM-2002 5.58 mg/kg, twice (5 minutes and 5 hours after occlusion), vs excipient) was “significantly reduced” and the “improvement for nervous condition and recovering the function” value ([2]; compared to excipient single administration) was “remarkably shown”.
